Experimental data published in ChEMBL document CHEMBL1154013, “Brain-penetrating 2-aminobenzimidazole H(1)-antihistamines for the treatment of insomnia” (Bioorg Med Chem Lett, 2009).

How the values were obtained:
Cytochrome P450 2D6 = Cytochrome P450 2D6 (Homo sapiens, UniProt P10635); experiment: Inhibition of CYP2D6; type: ADME
Cytochrome P450 3A4 = Cytochrome P450 3A4 (Homo sapiens, UniProt P08684); experiment: Inhibition of CYP3A4; type: ADME
Histamine H1 receptor = Histamine H1 receptor (Homo sapiens, UniProt P35367); experiment: Displacement of [3H]pyrilamine from human histamine H1 receptor expressed in CHO Flp-In cells by liquid scintillation assay; type: cell-based
Sequence of Histamine H1 receptor (P35367 whole entry): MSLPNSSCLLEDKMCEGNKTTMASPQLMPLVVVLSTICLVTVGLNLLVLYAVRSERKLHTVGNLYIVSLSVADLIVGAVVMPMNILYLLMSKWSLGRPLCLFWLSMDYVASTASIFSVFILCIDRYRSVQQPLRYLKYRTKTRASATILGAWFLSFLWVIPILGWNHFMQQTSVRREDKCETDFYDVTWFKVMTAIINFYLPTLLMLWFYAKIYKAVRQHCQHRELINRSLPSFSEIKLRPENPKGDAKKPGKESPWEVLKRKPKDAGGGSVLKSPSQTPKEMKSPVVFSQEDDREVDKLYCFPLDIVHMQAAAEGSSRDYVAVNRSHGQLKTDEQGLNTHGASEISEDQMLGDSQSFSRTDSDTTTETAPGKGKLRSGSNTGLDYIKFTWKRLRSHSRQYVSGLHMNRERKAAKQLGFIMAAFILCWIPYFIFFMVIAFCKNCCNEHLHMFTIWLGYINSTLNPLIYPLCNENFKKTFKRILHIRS

[1] = molecular target: T1, Muscarinic acetylcholine receptor M1 (Homo sapiens, UniProt P11229); experiment: Displacement of [3H]N-methyl Scopolamine from human muscarinic M1 receptor expressed in CHO Flp-In cells by liquid scintillation assay; type: cell-based
T1 sequence (P11229 whole entry): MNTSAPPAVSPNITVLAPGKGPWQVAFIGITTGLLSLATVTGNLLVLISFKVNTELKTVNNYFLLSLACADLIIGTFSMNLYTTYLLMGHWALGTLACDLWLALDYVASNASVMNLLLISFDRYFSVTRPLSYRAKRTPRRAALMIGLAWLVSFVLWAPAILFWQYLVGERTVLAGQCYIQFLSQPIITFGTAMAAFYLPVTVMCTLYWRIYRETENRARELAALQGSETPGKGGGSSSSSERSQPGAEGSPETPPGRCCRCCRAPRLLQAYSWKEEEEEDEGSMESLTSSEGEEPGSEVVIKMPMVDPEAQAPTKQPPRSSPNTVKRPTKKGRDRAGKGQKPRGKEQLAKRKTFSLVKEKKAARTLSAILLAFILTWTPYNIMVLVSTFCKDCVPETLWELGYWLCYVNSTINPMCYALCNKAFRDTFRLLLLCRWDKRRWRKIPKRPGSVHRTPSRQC

Brain [2] = experiment: Biodistribution in rat brain at 1 mg/kg, iv after 2 hrs in presence of triprolidine; type: ADME, organism-based; design: dose 1 mg/kg, route intravenous; settings: in vivo
[3] = Ratio of drug level in brain to plasma in rat at 1 mg/kg, iv after 2 hrs; type: ADME, organism-based; design: dose 1 mg/kg, route intravenous
Brain [4] = experiment: Biodistribution in rat brain assessed per gram of tissue at 1 mg/kg, iv after 2 hrs; type: ADME, organism-based; design: dose 1 mg/kg, route intravenous; settings: in vivo
Plasma = experiment: Drug level in rat plasma assessed per gram of tissue at 1 mg/kg, iv after 2 hrs; type: ADME, organism-based; design: dose 1 mg/kg, route intravenous; settings: in vivo
Homo sapiens = species on record: Homo sapiens; experiment: Selectivity for human muscarinic M1 receptor over human histamine H1 receptor
[5] = molecular target: T2, Voltage-gated inwardly rectifying potassium channel KCNH2 (Homo sapiens, UniProt Q12809); experiment: Displacement of [3H]dofetolide from human ERG channel expressed in HEK293 cells at 37 degC by liquid scintillation assay; type: cell-based
T2 sequence (Q12809 whole entry): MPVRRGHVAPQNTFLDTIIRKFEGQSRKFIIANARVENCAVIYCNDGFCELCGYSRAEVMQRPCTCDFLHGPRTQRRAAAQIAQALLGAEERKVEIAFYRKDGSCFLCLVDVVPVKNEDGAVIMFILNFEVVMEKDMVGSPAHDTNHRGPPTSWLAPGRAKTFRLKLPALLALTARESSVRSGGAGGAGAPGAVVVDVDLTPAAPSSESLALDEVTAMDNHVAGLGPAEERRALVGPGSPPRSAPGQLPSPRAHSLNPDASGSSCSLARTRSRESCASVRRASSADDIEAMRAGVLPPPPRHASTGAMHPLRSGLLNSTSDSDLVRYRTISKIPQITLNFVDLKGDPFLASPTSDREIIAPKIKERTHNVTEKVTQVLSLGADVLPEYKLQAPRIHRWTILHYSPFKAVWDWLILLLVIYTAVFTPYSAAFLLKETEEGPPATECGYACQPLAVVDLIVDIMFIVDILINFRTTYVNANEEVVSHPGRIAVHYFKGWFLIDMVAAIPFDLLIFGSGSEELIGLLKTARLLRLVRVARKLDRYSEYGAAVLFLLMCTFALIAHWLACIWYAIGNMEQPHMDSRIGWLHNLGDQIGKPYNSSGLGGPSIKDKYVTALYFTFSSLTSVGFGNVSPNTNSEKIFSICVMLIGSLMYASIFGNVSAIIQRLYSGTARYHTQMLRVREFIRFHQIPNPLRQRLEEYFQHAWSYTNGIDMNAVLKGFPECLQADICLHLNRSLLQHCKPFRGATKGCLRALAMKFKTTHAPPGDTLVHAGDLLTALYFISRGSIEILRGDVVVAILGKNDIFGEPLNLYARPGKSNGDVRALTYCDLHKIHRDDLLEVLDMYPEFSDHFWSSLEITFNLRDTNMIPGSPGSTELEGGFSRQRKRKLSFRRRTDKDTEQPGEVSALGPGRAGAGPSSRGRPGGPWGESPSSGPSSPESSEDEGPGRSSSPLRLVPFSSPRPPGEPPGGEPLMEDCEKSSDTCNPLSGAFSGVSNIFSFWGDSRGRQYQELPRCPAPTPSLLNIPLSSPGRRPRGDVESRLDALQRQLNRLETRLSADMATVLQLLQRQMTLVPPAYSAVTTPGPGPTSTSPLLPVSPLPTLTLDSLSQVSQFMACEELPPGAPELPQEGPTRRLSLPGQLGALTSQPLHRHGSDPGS

[6] = molecular target: T2, Voltage-gated inwardly rectifying potassium channel KCNH2; experiment: Inhibition of human ERG channel expressed in HEK293 cells by patch clamp assay; type: cell-based
[7] = Ratio of drug level in brain to plasma in rat at 30 mg/kg, po after 4 hrs; type: ADME, organism-based; design: dose 30 mg/kg, route oral
Rattus norvegicus [8] = experiment: Antihistamine activity in Wistar rat EEG/EMG model assessed as increase in time spent in non rapid eye movement sleep stage at 30 mg/kg, po administered during activity portion of diurnal cycle 6 hrs after lights-off measured in 4 hrs; type: functional
Rattus norvegicus [9] = experiment: Antihistamine activity in Wistar rat EEG/EMG model assessed as rapid eye movement sleep stage at 30 mg/kg, po administered during activity portion of diurnal cycle 6 hrs after lights-off measured in 4 hrs; type: functional
Rattus norvegicus [10] = experiment: Antihistamine activity in Wistar rat EEG/EMG model assessed as non rapid eye movement sleep stage latency at 30 mg/kg, po administered during activity portion of diurnal cycle 6 hrs after lights-off measured in 4 hrs; type: functional
Rattus norvegicus [11] = experiment: Antihistamine activity in Wistar rat EEG/EMG model assessed as longest 3 REM bouts at 30 mg/kg, po administered during activity portion of diurnal cycle 6 hrs after lights-off measured in 6 hrs; type: functional
Rattus norvegicus [12] = experiment: Antihistamine activity in Wistar rat EEG/EMG model assessed as rapid eye movement sleep stage latency at 30 mg/kg, po administered during activity portion of diurnal cycle 6 hrs after lights-off measured in 4 hrs; type: functional
[13] = Clearance in Sprague-Dawley rat at 10 mg/kg, po; type: ADME, organism-based; design: dose 10 mg/kg, route oral; settings: in vivo
[14] = Bioavailability in Sprague-Dawley rat at 5 mg/kg, iv; type: ADME, organism-based; settings: in vivo, read-out: Drug uptake
[15] = Drug level in Sprague-Dawley rat plasma at 10 mg/kg, po after 4 hrs; settings: read-out: Drug uptake
[16] = Ratio of drug level in brain to plasma in rat at 10 mg/kg, po after 4 hrs; type: ADME, organism-based; design: dose 10 mg/kg, route oral
Rattus norvegicus [17] = experiment: Antihistamine activity in Wistar rat EEG/EMG model assessed as longest 3 NREM bouts at 30 mg/kg, po administered during activity portion of diurnal cycle 6 hrs after lights-off measured in 6 hrs; type: functional
Brain [18] = experiment: Biodistribution in Sprague-Dawley rat brain at 10 mg/kg, po assessed per gram of tissue after 4 hrs; settings: in vivo
[19] = Apparent permeability across human Caco-2 cell membrane; type: ADME, cell-based
Caco-2 = experiment: Ratio of permeability from apical to basolateral side to basolateral to apical side in human Caco-2 cells; type: ADME, cell-based

Sequence of Cytochrome P450 3A4 (P08684 whole entry): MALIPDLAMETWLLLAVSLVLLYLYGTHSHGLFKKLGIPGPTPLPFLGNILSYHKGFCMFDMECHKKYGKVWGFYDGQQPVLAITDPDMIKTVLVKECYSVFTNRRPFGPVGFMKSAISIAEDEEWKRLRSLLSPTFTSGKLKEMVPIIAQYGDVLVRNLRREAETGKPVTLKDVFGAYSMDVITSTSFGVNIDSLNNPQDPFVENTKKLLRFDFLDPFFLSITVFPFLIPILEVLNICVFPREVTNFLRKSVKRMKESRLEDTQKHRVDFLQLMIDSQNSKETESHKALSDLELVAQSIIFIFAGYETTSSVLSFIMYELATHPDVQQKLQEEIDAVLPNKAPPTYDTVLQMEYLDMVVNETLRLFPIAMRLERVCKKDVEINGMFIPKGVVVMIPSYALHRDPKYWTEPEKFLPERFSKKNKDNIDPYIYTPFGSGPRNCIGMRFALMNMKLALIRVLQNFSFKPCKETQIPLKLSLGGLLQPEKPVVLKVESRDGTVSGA
Sequence of Cytochrome P450 2D6 (P10635 whole entry): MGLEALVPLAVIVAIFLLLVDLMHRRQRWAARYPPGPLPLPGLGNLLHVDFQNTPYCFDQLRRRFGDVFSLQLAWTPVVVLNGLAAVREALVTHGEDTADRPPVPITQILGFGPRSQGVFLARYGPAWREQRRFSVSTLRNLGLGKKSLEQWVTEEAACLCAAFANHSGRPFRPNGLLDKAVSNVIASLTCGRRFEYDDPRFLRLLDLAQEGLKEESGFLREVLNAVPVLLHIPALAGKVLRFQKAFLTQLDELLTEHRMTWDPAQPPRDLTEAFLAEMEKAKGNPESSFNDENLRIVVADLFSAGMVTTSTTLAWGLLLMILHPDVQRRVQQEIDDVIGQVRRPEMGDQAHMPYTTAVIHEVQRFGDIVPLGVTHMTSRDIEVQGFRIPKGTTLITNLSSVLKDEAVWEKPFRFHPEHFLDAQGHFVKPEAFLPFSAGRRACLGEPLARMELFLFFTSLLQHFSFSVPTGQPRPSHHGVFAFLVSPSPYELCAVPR

Row | SMILES | IC50 (Cytochrome P450 2D6; read-out: IC50) | IC50 (Cytochrome P450 3A4) | Ki (Histamine H1 receptor; read-out: Ki) | Selectivity ratio (Homo sapiens) | Ki [5] | further results
1 | COc1ccc(Cn2c(N3CCC(N(C)C)CC3)nc3ccccc32)cc1 | 6.07 µM | > 5 µM | 0.0024 µM | – | – | –
2 | CNC1CCN(c2nc3ccccc3n2Cc2ccc(F)cc2)CC1 | – | – | 0.0024 µM | – | – | IC50 (Cytochrome P450 2D6): 6.66 µM; Ki ([1]; read-out: Ki): 0.988 µM
3 | CN(c1ccccc1)C1CCN(c2nc3ccccc3n2Cc2ccc(F)cc2)CC1 | > 20 µM | – | – | – | – | Ki [1]: > 10 µM; Ki (Histamine H1 receptor): 0.0805 µM
4 | Cc1ccc(/C(=C\CN2CCCC2)c2ccccn2)cc1 [TRIPROLIDINE] | – | – | – | – | – | Drug uptake (Brain [2]): 55.6 ng; Kp at 2 h [3]: 4.5; Drug uptake (Brain [4]): 55.6 ng/g; Drug uptake (Plasma): 7.1 ng/g
5 | COc1ccc(Cn2c(N3CCC(n4cc(C)cn4)CC3)nc3ccccc32)cc1 | 7.32 µM | > 5 µM | 0.0071 µM | > 1000 | > 5 µM | –
6 | Fc1ccc(Cn2c(N3CCC(n4ccnc4)CC3)nc3ccccc32)cc1 | 1.12 µM | 0.072 µM | 0.0013 µM | > 1000 | 0.137 µM | –
7 | COCCN(C)C1CCN(c2nc3ccccc3n2Cc2ccc(F)cc2)CC1 | 4.44 µM | > 5 µM | 0.0022 µM | – | – | –
8 | COc1ccc(Cn2c(N3CCC(NCC4CCOCC4)CC3)nc3ccccc32)cc1 | 16.3 µM | > 5 µM | 0.0141 µM | > 1000 | 1.46 µM | –
9 | CN(c1nccc(=O)[nH]1)C1CCN(c2nc3ccccc3n2Cc2ccc(F)cc2)CC1 [MIZOLASTINE] | – | – | 0.0027 µM | – | 7.26 µM | IC50 (Cytochrome P450 2D6): > 20 µM; Drug uptake (Brain [2]): 55.6 ng; Drug uptake (Brain [4]): 0 ng/g; Drug uptake (Plasma): 6.3 ng/g; IC50 [6]: 0.441 µM; Ki ([1]; read-out: Ki): > 10 µM
10 | CN(C1CCOCC1)C1CCN(c2nc3ccccc3n2Cc2ccc(F)cc2)CC1 | 6.36 µM | – | – | – | – | Drug uptake (Brain [2]): 39.4 ng; Kp at 2 h [3]: 3.5; Drug uptake (Brain [4]): 55 ng/g; Drug uptake (Plasma): 18.1 ng/g; Ki [1]: 14.7 µM; Ki (Histamine H1 receptor): 0.0033 µM
11 | CN(CCO)C1CCN(c2nc3ccccc3n2Cc2ccc(F)cc2)CC1 | 35.1 µM | > 5 µM | 0.0032 µM | > 1000 | 0.116 µM | –
12 | Cc1cnn(C2CCN(c3nc4ccccc4n3Cc3ccc(F)cc3)CC2)c1 | – | – | – | – | – | Kp at 4 h [7]: 2.3
13 | CN(CCc1ccccc1)C1CCN(c2nc3ccccc3n2Cc2ccc(F)cc2)CC1 | – | – | 0.0024 µM | – | – | IC50 (Cytochrome P450 2D6): 0.502 µM; Ki ([1]; read-out: Ki): 0.089 µM
14 | COc1ccc(Cn2c(N3CCC(N(C)CC4CCOCC4)CC3)nc3ccccc32)cc1 | 8.18 µM | > 5 µM | 0.0141 µM | > 1000 | 0.102 µM | –
15 | CN(C1CCCCC1)C1CCN(c2nc3ccccc3n2Cc2ccc(F)cc2)CC1 | – | – | 0.0028 µM | – | – | IC50 (Cytochrome P450 2D6): 2.05 µM; Ki ([1]; read-out: Ki): 2.74 µM
16 | Cc1ccc(-c2nc3ccc(C)cn3c2CC(=O)N(C)C)cc1 [ZOLPIDEM] | – | – | – | – | – | Activity (Rattus norvegicus [8]): 48.3%; Activity (Rattus norvegicus [9]): 0.4%; Time (Rattus norvegicus [10]): 7 min; Time (Rattus norvegicus [11]): 1.4 min; Time (Rattus norvegicus [12]): 186 min
17 | Fc1ccc(Cn2c(N3CCC(n4cccc4)CC3)nc3ccccc32)cc1 | 1.53 µM | > 5 µM | 0.0593 µM | > 1000 | 0.157 µM | –
18 | Cc1ccc(Cn2c(N3CCC(N(C)C)CC3)nc3ccccc32)cc1 | 7.21 µM | > 5 µM | 0.0015 µM | > 1000 | 0.073 µM | –
19 | CN(Cc1ccccc1)C1CCN(c2nc3ccccc3n2Cc2ccc(F)cc2)CC1 | – | – | 0.0036 µM | – | – | IC50 (Cytochrome P450 2D6): 0.805 µM; Ki ([1]; read-out: Ki): 3.58 µM
20 | CN(CC1CCOCC1)C1CCN(c2nc3ccccc3n2Cc2ccc(F)cc2)CC1 | 11 µM | > 5 µM | – | – | – | Activity (Rattus norvegicus [8]): 47.2%; Activity (Rattus norvegicus [9]): 2.6%; CL/F [13]: 134 mL/min/kg; bioavailability [14]: 2%; Time (Rattus norvegicus [10]): 21 min; Time (Rattus norvegicus [11]): 0.5 min; Drug uptake (Brain [2]): 39.4 ng; concentration at 4 h [15]: 9 ng/mL; Kp at 4 h [16]: 10; Kp at 2 h [3]: 6.3; Drug uptake (Brain [4]): 104 ng/g; Time (Rattus norvegicus [12]): 110 min; Drug uptake (Plasma): 19.2 ng/g; Time (Rattus norvegicus [17]): 11 min; Drug uptake (Brain [18]): 94 ng/g
21 | CN(C)CCN(C)C1CCN(c2nc3ccccc3n2Cc2ccc(F)cc2)CC1 | 6.13 µM | > 5 µM | 0.0029 µM | > 1000 | 0.776 µM | –
22 | O=C1CCCCN1C1CCN(c2nc3ccccc3n2Cc2ccc(F)cc2)CC1 | 4.35 µM | > 5 µM | 0.0066 µM | > 1000 | > 7.5 µM | Papp [19]: 12.4 ×10⁻⁶ cm/s; Ratio (Caco-2): 0.6
23 | CN(c1ncccn1)C1CCN(c2nc3ccccc3n2Cc2ccc(F)cc2)CC1 | – | – | 0.0752 µM | – | – | IC50 (Cytochrome P450 2D6): 1.04 µM; Ki ([1]; read-out: Ki): > 10 µM
24 | CN(CC1CCCCC1)C1CCN(c2nc3ccccc3n2Cc2ccc(F)cc2)CC1 | 0.36 µM | – | – | – | – | Ki [1]: 3.86 µM; Ki (Histamine H1 receptor): 0.0044 µM
25 | Fc1ccc(Cn2c(N3CCC(NCC4CCOCC4)CC3)nc3ccccc32)cc1 | 12.1 µM | > 5 µM | 0.0045 µM | > 1000 | 0.426 µM | –
26 | Fc1ccc(Cn2c(N3CCC(n4cccn4)CC3)nc3ccccc32)cc1 | 1.48 µM | > 5 µM | 0.0183 µM | – | – | –
27 | CN(C)C1CCN(c2nc3ccccc3n2Cc2ccc(F)cc2)CC1 | 12.8 µM | > 5 µM | 0.0018 µM | > 1000 | 0.057 µM | Drug uptake (Brain [2]): 55.3 ng; Kp at 2 h [3]: 4.6; Drug uptake (Brain [4]): 50 ng/g; Drug uptake (Plasma): 10.9 ng/g
